SMILES strings stand for the structures.

In experiment [1] the test system is H3K27 methylation in G401 cell. Put plainly: ELISA (H3K27 methylation) assay in G401 cells. The format is cell-based, human. As to conditions: Homo sapiens, G-401, read-out: (c) IC50, ELISA Qualified. In short, it runs like this:
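IC50 from dose-response fit of percent inhibition relative to DMSO, using H3K27me3/me2 ELISA signal (ECL) normalized to histone H3. Histones HCl-extracted after 48 h compound exposure of G401 cells at up to 20 μM, 8- or 12-point 3-fold series.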

A further experiment addresses T1, EED (1-441)-His protein (Homo sapiens, UniProt O75530).
T1 construct: 30 nM EED (1-441)-His protein
Briefly: EED-H3K27Me3 peptide competition binding assay by AlphaScreen. As to conditions: read-out: (a) IC50, EED Alphascreen binding Qualified. In short, it runs like this: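 Serially diluted compound (12 points, 3-fold) incubated 20 min with 30 nM EED(1-441)-His and 15 nM biotin-H3K27Me3(19-33) peptide in 25 mM HEPES pH 8, 0.02% Tween-20, 0.5% BSA. Ni-chelate acceptor/streptavidin donor beads (10 μg/mL each) added, 1 h rt dark; 615 nm emission normalized to controls, dose-response fit for IC50.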
On the technique in general: In Alpha technology, singlet oxygen from a donor bead excites a nearby acceptor bead.

The target in experiment [2] is wild type PRC2 (wtPRC2) complex (Homo sapiens, UniProt O75530). Put plainly: EED LC-MS assay (SAH production by PRC2). The format is biochemical. As to conditions: read-out: (b) IC50, EED LC-MS Qualified. The procedure: Compounds of the present invention were assessed for their ability to inhibit PRC2 activity in a pentameric complex of EZH2, SUZ12, EED, Rbap48 and AEBP in biochemical assays. The ability of compounds of the present invention to inhibit cellular activity of PRC2 was assessed by analysing histone H3 lysine 27 methylation in human cell lines. The ability of compounds of the present invention to inhibit cancers was derived from their ability to modulate activity in human cancer cell lines bearing specific dependence to PRC2 activity to maintain cancerous growth.
wild type PRC2 (wtPRC2) complex, sequence (O75530 whole entry): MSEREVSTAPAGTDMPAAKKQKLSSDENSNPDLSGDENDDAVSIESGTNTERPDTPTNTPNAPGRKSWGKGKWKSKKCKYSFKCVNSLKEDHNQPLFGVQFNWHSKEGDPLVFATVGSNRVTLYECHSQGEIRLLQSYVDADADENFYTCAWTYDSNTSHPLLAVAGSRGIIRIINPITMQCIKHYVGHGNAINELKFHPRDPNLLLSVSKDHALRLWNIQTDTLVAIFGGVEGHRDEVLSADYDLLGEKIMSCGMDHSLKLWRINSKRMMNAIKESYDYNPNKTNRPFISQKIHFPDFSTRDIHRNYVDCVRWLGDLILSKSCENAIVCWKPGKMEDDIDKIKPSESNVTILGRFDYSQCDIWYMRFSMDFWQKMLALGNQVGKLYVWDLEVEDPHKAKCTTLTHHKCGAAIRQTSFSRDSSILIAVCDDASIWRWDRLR
wild type PRC2 (wtPRC2) complex, sequence (Q15910 whole entry partner): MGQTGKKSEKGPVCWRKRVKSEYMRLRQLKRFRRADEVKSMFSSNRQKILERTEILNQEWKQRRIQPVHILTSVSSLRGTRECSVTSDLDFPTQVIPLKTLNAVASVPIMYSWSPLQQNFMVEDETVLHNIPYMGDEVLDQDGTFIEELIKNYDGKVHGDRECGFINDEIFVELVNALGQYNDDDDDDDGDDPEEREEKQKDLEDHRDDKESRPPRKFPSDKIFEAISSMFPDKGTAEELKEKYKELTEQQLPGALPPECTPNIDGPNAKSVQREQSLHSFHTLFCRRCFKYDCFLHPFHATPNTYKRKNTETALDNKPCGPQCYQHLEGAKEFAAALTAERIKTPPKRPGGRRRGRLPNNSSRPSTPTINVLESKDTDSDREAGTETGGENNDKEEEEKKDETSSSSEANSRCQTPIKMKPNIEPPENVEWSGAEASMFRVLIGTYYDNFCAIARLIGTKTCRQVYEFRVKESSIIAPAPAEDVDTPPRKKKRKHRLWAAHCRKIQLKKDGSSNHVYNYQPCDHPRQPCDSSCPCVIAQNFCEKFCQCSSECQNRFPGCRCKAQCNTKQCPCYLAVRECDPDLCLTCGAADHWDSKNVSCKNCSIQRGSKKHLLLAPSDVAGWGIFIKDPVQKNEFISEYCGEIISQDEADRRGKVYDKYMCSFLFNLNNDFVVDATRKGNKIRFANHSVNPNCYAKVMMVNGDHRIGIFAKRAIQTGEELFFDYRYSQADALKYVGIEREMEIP
wild type PRC2 (wtPRC2) complex, sequence (Q15022 whole entry partner): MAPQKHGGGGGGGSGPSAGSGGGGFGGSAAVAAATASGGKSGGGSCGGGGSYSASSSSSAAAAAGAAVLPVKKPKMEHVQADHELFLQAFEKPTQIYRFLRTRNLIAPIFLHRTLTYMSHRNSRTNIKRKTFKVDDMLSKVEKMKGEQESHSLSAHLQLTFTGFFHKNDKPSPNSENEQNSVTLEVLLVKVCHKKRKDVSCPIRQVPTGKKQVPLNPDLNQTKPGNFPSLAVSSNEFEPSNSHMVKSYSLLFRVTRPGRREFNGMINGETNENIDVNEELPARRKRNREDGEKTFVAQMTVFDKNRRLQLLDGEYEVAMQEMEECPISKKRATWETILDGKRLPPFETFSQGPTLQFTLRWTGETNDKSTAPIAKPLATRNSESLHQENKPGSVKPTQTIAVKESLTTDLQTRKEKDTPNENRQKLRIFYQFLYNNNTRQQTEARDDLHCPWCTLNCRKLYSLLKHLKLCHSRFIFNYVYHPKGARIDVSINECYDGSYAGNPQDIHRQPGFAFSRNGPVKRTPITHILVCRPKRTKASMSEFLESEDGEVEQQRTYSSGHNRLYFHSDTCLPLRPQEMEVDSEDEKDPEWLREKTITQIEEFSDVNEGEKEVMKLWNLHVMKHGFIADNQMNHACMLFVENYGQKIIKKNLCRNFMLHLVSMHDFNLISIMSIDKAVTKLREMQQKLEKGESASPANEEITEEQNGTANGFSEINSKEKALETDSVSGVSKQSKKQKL
wild type PRC2 (wtPRC2) complex, sequence (Q09028 whole entry partner): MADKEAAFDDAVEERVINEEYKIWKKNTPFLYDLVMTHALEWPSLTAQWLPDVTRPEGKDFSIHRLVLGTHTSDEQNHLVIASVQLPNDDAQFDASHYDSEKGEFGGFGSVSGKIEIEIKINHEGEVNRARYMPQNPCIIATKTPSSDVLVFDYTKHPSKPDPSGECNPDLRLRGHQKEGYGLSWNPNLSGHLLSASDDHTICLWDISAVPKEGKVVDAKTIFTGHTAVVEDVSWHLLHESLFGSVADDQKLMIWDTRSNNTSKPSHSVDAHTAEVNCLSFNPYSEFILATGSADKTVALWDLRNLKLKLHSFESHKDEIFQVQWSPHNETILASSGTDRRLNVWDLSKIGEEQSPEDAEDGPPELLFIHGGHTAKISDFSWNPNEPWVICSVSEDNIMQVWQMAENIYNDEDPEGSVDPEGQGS
wild type PRC2 (wtPRC2) complex, sequence (Q6ZN18 whole entry partner): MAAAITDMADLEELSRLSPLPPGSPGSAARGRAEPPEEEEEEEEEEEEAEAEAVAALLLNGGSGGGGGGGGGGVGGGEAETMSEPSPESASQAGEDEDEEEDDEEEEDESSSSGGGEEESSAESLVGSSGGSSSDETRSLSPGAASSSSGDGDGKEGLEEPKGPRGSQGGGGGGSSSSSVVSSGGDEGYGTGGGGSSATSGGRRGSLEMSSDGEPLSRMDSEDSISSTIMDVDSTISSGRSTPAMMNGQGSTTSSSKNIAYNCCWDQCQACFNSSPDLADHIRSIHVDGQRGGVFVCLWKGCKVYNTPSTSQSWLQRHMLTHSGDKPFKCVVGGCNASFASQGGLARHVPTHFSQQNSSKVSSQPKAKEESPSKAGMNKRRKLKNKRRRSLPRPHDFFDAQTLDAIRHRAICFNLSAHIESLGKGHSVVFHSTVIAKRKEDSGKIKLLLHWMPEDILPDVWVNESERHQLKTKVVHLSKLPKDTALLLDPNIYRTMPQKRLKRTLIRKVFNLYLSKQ
Representative compounds of the present invention were serially and separately diluted 3-fold in DMSO to obtain a total of eight or twelve concentrations. Then the test compounds at each concentration (120 nL of each) were transferred by Mosquito into a 384-well Perkin Elmer ProxiPlate 384 plus plates. Solutions (6 μL) of 24 nM the wild type PRC2 (wtPRC2) complex and 2 μM SAM in reaction buffer (20 mM Tris, pH 8.0, 0.1% BSA, 0.01% Triton, 0.5 mM DTT) were added to the wells that were then incubated with the test compound for 20 min. A 6 μL solution of 3 μM of the peptide substrate H3K27Me0 (histone H3[21-44]-biotin) in reaction buffer was added to initiate each reaction. The final components in the reaction solution include 12 nM wtPRC2 complex, 1 μM SAM, and 1.5 μM H3K27me0 peptide with varying concentration of the compounds. A positive control consisted of the enzyme, 1 μM SAM and 1.5 μM substrate in the absence of the test compound, and a negative control consisted of 1 μM SAM and 1.5 μM substrate only. Each reaction was incubated at rt for 120 min, then stopped by addition of 3 μL per of quench solution (2.5% TFA with 320 nM d4-SAH). The reaction mixture was centrifuged (Eppendorf centrifuge 5810, Rotor A-4-62) for 2 min at 2000 rpm and read on an API 4000 triple quadrupole mass spec with Turbulon Spray (Applied Biosystem) coupled with Prominence UFLC (Shimadzu). The levels of SAH production were then normalized based on the values coming from the positive and negative controls to give percent enzyme activities. The data were then fit to a dose response equation using the program Helios to get the IC50 values of the test compound.

T1 sequence (O75530 whole entry): as the sequence (O75530 whole entry) above

The IC50 is the concentration needed to halve the response being measured. Take `COc1ccccc1CNc1ccc(-c2ccc(S(=O)(=O)C3CCNCC3)cc2)c2nncn12` [Example 53, N-(2-methoxybenzyl)-8-(4-(piperidin-4-ylsulfonyl)phenyl)-[1,2,4]triazolo[4,3-a] pyridin-5-amine]: the IC50 came to 36.5 nM in experiment [1], 27.9 nM on EED (1-441)-His protein and 144 nM in experiment [2].

On to `COc1ccccc1CNc1ccc(-c2ccc(CN3CC(F)(F)C3)cc2)c2nncn12` [Example 54, 8-(4-((3,3-difluoroazetidin-1-yl)methyl)phenyl)-N-(2-methoxybenzyl)-[1,2,4] triazolo[4,3-a]pyridin-5-amine], for which the IC50 stood at 56.6 nM in experiment [1], 19 nM on EED (1-441)-His protein and 230 nM in experiment [2].

With `CCS(=O)(=O)c1ccc(-c2ccc(NCc3ccccc3OC)n3cnnc23)cc1` [Example 56, 8-(4-(ethylsulfonyl)phenyl)-N-(2-methoxybenzyl)-[1,2,4]triazolo[4,3-a]pyridin-5-amine], the IC50 in experiment [1] was determined as 88.5 nM; at EED (1-441)-His protein it was 33 nM; in experiment [2], 130 nM.

For the molecule `COc1ccccc1CNc1ccc(-c2ccc(S(=O)(=O)C(C)C)cc2)c2nncn12` [Example 57, 8-(4-(isopropylsulfonyl)phenyl)-N-(2-methoxybenzyl)-[1,2,4]triazolo[4,3-a] pyridin-5-amine], the half-inhibitory concentration (IC50) in experiment [1] turned out to be 39.5 nM; on EED (1-441)-His protein it was 15.9 nM; in experiment [2], 183 nM.

For `COc1ccccc1CNc1ccc(-c2ccc(S(C)(=O)=O)nc2)c2nncn12` [Example 61, N-(2-methoxybenzyl)-8-(6-(methylsulfonyl)pyridin-3-yl)-[1,2,4]triazolo[4,3-a] pyridin-5-amine], the IC50 in experiment [1] was 61.9 nM; on EED (1-441)-His protein it was 43.8 nM; in experiment [2] it was 538 nM.

As to `COc1ccccc1CNc1ccc(-c2c(C)noc2C)c2nncn12` [Example 62, 8-(3,5-dimethylisoxazol-4-yl)-N-(2-methoxybenzyl)-[1,2,4]triazolo[4,3-a]pyridin-5-amine], the IC50 in experiment [1] worked out at 66.7 nM; at EED (1-441)-His protein, 43.6 nM; in experiment [2], 321 nM.

In the case of `COc1ccccc1CNc1ccc(-c2ccc(C(C)=O)cc2)c2nncn12` [Example 63, 1-(4-(5-((2-methoxybenzyl)amino)-[1,2,4]triazolo[4,3-a]pyridin-8-yl)phenyl) ethanone], the IC50 amounted to 275 nM in experiment [1], 76.8 nM at EED (1-441)-His protein and 1700 nM in experiment [2].

In the case of `COc1ccccc1CNc1ccc(-c2ccc(C(N)=O)c(Cl)c2)c2nncn12` [Example 64, 2-chloro-4-(5-((2-methoxybenzyl)amino)-[1,2,4]triazolo[4,3-a]pyridin-8-yl) benzamide], the IC50 amounted to 126 nM in experiment [1], 31.7 nM at EED (1-441)-His protein and 914 nM in experiment [2].

On to `COc1ccccc1CNc1ccc(-c2ccc(CN3CC(F)C3)cc2)c2nncn12` [Example 66, 8-(4-((3-fluoroazetidin-1-yl)methyl)phenyl)-N-(2-methoxybenzyl)-[1,2,4] triazolo[4,3-a]pyridin-5-amine], for which the results for the IC50 (in experiment [1]; on EED (1-441)-His protein; in experiment [2]) were 29.9 nM, 11.8 nM and 252 nM, respectively.

For the molecule `COc1ccccc1CNc1ccc(-c2ccnc(N3CCN(C)CC3)c2)c2nncn12` [Example 67, N-(2-methoxybenzyl)-8-(2-(4-methylpiperazin-1-yl)pyridin-4-yl)-[1,2,4] triazolo[4,3-a]pyridin-5-amine], the figures for the half-maximal inhibitory concentration (IC50) (in experiment [1]; on EED (1-441)-His protein; in experiment [2]) were 45 nM, 54.6 nM and 197 nM, respectively.

As to `COc1ccccc1CNc1ccc(-c2ccc(S(=O)(=O)N3CCCC3)cc2)c2nncn12` [Example 68, N-(2-methoxybenzyl)-8-(4-(pyrrolidin-1-ylsulfonyl)phenyl)-[1,2,4]triazolo[4,3-a] pyridin-5-amine], the IC50 in experiment [1] came to 49.7 nM; at EED (1-441)-His protein, 16.7 nM; in experiment [2], 311 nM.

Regarding `CCN1CCN(c2ccc(-c3ccc(NCc4ccccc4OC)n4cnnc34)cn2)CC1` [Example 69, 8-(6-(4-ethylpiperazin-1-yl)pyridin-3-yl)-N-(2-methoxybenzyl)-[1,2,4]triazolo[4,3-a] pyridin-5-amine], the IC50 in experiment [1] was found to be 73.7 nM; at EED (1-441)-His protein it was 28.2 nM; in experiment [2] it was 304 nM.

Regarding `COc1ccccc1CNc1ccc(-c2ccc(CN(C)C)cc2F)c2nncn12` [Example 70, 8-(4-((dimethylamino)methyl)-2-fluorophenyl)-N-(2-methoxybenzyl)-[1,2,4] triazolo[4,3-a]pyridin-5-amine], the IC50 in experiment [1] was determined as 334 nM; on EED (1-441)-His protein, 37.6 nM; in experiment [2] it was 188 nM.

As to `COc1ccccc1CNc1ccc(-c2ccc(C(=O)N(C)C)cc2F)c2nncn12` [Example 71, 3-fluoro-4-(5-((2-methoxybenzyl)amino)-[1,2,4]triazolo[4,3-a]pyridin-8-yl)-N,N-dimethylbenzamide], the figures for the IC50 (in experiment [1]; on EED (1-441)-His protein; in experiment [2]) were 43.4 nM, 34.9 nM and 275 nM, respectively.

For `COc1ccccc1CNc1ccc(-c2ccc(C(N)=O)cc2)c2nncn12` [Example 72, 4-(5-((2-methoxybenzyl)amino)-[1,2,4]triazolo[4,3-a]pyridin-8-yl)benzamide], the IC50 in experiment [1] came out at 43.3 nM; at EED (1-441)-His protein it was 12.9 nM; in experiment [2] it was 1010 nM.

On to `COc1ccccc1CNc1ccc(-c2ccc(S(N)(=O)=O)cc2)c2nncn12` [Example 73, 4-(5-((2-methoxybenzyl)amino)-[1,2,4]triazolo[4,3-a]pyridin-8-yl)benzene sulfonamide], for which the IC50 in experiment [1] worked out at 397 nM; on EED (1-441)-His protein, 45.2 nM; in experiment [2], 236 nM.

With `COc1ccccc1CNc1ccc(-c2ccc(Cn3ccnc3)cc2)c2nncn12` [Example 76, 8-(4-((1H-imidazol-1-yl)methyl)phenyl)-N-(2-methoxybenzyl)-[1,2,4] triazolo[4,3-a]pyridin-5-amine], the IC50 was 133 nM in experiment [1], 41.9 nM on EED (1-441)-His protein and 420 nM in experiment [2].

In the case of `COc1ccccc1CNc1ccc(-c2ccc(N3CCN(C(C)C)CC3)cc2)c2nncn12` [Example 77, 8-(4-(4-isopropylpiperazin-1-yl)phenyl)-N-(2-methoxybenzyl)-[1,2,4]triazolo[4,3-a] pyridin-5-amine], the IC50 in experiment [1] came out at 21.7 nM; at EED (1-441)-His protein, 14.6 nM; in experiment [2], 106 nM.

Regarding `COc1cccc(F)c1CNc1ccc(-c2ccc(S(C)(=O)=O)cc2)c2nncn12` [Example 78, N-(2-fluoro-6-methoxybenzyl)-8-(4-(methylsulfonyl)phenyl)-[1,2,4]triazolo[4,3-a]pyridin-5-amine], the IC50 came out at 26.1 nM in experiment [1], 18 nM on EED (1-441)-His protein and 75.1 nM in experiment [2].

Regarding `COc1ccccc1CNc1ccc(-c2ccc(NS(C)(=O)=O)cc2)c2nncn12` [Example 82, N-(4-(5-((2-methoxybenzyl)amino)-[1,2,4]triazolo[4,3-a]pyridin-8-yl)phenyl) methanesulfonamide], the IC50 is 330 nM in experiment [1], 80.3 nM at EED (1-441)-His protein and 509 nM in experiment [2].

With `COc1cc(F)ccc1CNc1ccc(-c2ccc(S(C)(=O)=O)cc2)c2nncn12` [Example 83, N-(4-fluoro-2-methoxybenzyl)-8-(4-(methylsulfonyl)phenyl)-[1,2,4]triazolo[4,3-a]pyridin-5-amine], the values for the IC50 (in experiment [1]; at EED (1-441)-His protein; in experiment [2]) were 815 nM, 55.7 nM and 491 nM, respectively.

Take `COc1ccccc1CNc1ccc(-c2ccc(N3CCN(C(C)C)CC3)nc2)c2nncn12` [Example 87, 8-(6-(4-isopropylpiperazin-1-yl)pyridin-3-yl)-N-(2-methoxybenzyl)-[1,2,4] triazolo[4,3-a]pyridin-5-amine]: the IC50 was 90.1 nM in experiment [1], 39.2 nM on EED (1-441)-His protein and 239 nM in experiment [2].

These data come from patent US10689378B2, “Triazolopyridine compounds and uses thereof” (Novartis AG, priority 2016, dated 2020).
